{"source": "patent US11578062B2", "about": "“Solid forms of (R)-1(2,2-difluorobenzo[d][1,3]dioxol-5-yl)-N-(1-(2,3-dihydroxypropyl)-6-fluoro-2-(1-hydroxy-2-methylpropan-2-yl)-1H-indol-5-yl)cyclopropanecarboxamide” (Vertex Pharmaceuticals Incorporated, priority 2010, dated 2023)", "target": "T1, ΔF508-CFTR (Homo sapiens, UniProt P13569, DEL508-508)", "T1 construct": "expressed in transfected cells", "T1 sequence (P13569 with tags, fused parts or gaps DEL508-508)": "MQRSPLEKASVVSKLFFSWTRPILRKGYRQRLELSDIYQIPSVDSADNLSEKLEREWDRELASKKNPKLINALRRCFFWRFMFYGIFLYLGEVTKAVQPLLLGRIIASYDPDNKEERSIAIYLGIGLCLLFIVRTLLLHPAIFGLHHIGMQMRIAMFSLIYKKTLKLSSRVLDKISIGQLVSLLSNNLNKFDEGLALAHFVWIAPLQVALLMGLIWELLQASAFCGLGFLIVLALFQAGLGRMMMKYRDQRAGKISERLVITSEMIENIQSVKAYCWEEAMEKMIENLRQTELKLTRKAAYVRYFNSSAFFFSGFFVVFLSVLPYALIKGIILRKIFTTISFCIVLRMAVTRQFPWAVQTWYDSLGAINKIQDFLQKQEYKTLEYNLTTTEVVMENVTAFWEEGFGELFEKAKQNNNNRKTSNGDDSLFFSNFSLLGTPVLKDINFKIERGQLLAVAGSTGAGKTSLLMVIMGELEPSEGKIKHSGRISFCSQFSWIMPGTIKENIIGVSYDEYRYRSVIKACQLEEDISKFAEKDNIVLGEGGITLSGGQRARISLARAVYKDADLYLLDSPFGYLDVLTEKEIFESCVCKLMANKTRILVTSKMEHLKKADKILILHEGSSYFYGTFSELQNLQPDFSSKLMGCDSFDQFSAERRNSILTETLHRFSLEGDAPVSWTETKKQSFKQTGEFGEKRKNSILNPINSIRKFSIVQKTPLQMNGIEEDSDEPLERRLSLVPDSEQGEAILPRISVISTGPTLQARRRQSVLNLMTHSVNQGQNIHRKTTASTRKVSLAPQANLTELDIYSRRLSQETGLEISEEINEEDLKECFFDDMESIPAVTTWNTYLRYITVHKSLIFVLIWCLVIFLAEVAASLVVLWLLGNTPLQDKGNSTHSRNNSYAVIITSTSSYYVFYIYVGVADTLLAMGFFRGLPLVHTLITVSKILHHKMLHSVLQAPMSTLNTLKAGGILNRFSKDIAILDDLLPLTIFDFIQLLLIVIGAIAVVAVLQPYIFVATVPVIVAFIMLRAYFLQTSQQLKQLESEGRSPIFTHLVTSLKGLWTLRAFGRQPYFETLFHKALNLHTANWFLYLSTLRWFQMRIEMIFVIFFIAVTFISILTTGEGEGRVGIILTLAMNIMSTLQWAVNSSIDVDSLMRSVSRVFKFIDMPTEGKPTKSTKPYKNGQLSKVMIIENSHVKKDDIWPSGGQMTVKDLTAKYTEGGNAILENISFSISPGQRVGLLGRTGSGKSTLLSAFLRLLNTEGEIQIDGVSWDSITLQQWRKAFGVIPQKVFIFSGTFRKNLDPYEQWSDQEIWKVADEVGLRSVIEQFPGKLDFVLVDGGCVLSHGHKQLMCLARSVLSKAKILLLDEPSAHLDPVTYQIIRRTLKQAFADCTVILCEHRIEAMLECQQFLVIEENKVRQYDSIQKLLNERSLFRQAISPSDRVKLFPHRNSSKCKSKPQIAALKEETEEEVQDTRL", "assay": "Membrane potential optical assay for ΔF508-CFTR correction (FRET voltage-sensor dyes, VIPR)", "format": "cell-based", "conditions": "PercentActivity; NIH3T3 mouse fibroblasts stably expressing ΔF508-CFTR; procedures described above", "description": "Assays for Detecting and Measuring ΔF508-CFTR Correction Properties of Compounds\nMembrane potential optical methods for assaying ΔF508-CFTR modulation properties of compounds\nThe optical membrane potential assay utilized voltage-sensitive FRET sensors described by Gonzalez and Tsien (See, Gonzalez, J. E. and R. Y. Tsien (1995) “Voltage sensing by fluorescence resonance energy transfer in single cells” Biophys J 69(4): 1272-80, and Gonzalez, J. E. and R. Y. Tsien (1997) “Improved indicators of cell membrane potential that use fluorescence resonance energy transfer” Chem Biol 4(4): 269-77) in combination with instrumentation for measuring fluorescence changes such as the Voltage/Ion Probe Reader (VIPR) (See, Gonzalez, J. E., K. Oades, et al. (1999) “Cell-based assays and instrumentation for screening ion-channel targets” Drug Discov Today 4(9): 431-439).\nThese voltage sensitive assays are based on the change in fluorescence resonant energy transfer (FRET) between the membrane-soluble, voltage-sensitive dye, DiSBAC2(3), and a fluorescent phospholipid, CC2-DMPE, which is attached to the outer leaflet of the plasma membrane and acts as a FRET donor. […] The changes in fluorescence emission were monitored using VIPR™ II, which is an integrated liquid handler and fluorescent detector designed to conduct cell-based screens in 96- or 384-well microtiter plates. […]", "data": [{"smiles": "CC(C)(CO)c1cc2cc(NC(=O)C3(c4ccc5c(c4)OC(F)(F)O5)CC3)c(F)cc2n1C[C@@H](O)CO", "note": "[Compound 1, (R)-1-(2,2-difluorobenzo[d][1,3]dioxol-5-yl)-N-(1-(2,3-dihydroxypropyl)-6-fluoro-2-(1-hydroxy-2-methylpropan-2-yl)-1H-indol-5-yl)cyclopropanecarboxamide]", "values": [{"measurement": "BinnedMaxEfficacy", "result": "+++ (PercentActivity Bins: + <= 25.0 < ++ <= 100.0 < +++)"}]}]}
